{"source": "patent US8192962B2", "about": "“Processes for detecting toxic substances” (Daikin Industries, Ltd., priority 2001, dated 2012)", "test_system": "Transport facilitation protein genes", "experiment": "DNA chip mRNA expression in yeast, transport facilitation protein genes (Table 5)", "format": "cell-based, Saccharomyces cerevisiae S288C", "method_in_brief": "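In this screen, yeast in logarithmic growth are challenged for two hours with a toxic substance at a non-lethal inhibitory concentration. Their mRNA, converted to Cy3- or Cy5-labeled cDNA, hybridizes at 65° C. to a chip spanning every yeast gene, and expression is expressed as a ratio to untreated cells.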", "data": [{"substance": "manganese ethylenebis(dithiocarbamate) [(8)]", "values": [{"measurement": "The level of expressed mRNA in the presence of chemical substance/The level of expressed mRNA in the absence of chemical substance", "setting": "yeast gene YGR224W", "value": 0.6}, {"measurement": "The level of expressed mRNA in the presence of chemical substance/The level of expressed mRNA in the absence of chemical substance", "setting": "yeast gene YGR260W", "value": 0.5}, {"measurement": "The level of expressed mRNA in the presence of chemical substance/The level of expressed mRNA in the absence of chemical substance", "setting": "yeast gene YGR281W", "value": 0.7}, {"measurement": "The level of expressed mRNA in the presence of chemical substance/The level of expressed mRNA in the absence of chemical substance", "setting": "yeast gene YHL035C", "value": 1.1}, {"measurement": "The level of expressed mRNA in the presence of chemical substance/The level of expressed mRNA in the absence of chemical substance", "setting": "yeast gene YHL040C", "value": 1.5}, {"measurement": "The level of expressed mRNA in the presence of chemical substance/The level of expressed mRNA in the absence of chemical substance", "setting": "yeast gene YHL047C", "value": 1.5}, {"measurement": "The level of expressed mRNA in the presence of chemical substance/The level of expressed mRNA in the absence of chemical substance", "setting": "yeast gene YHR026W", "value": 1.6}, {"measurement": "The level of expressed mRNA in the presence of chemical substance/The level of expressed mRNA in the absence of chemical substance", "setting": "yeast gene YHR092C", "value": 1.5}, {"measurement": "The level of expressed mRNA in the presence of chemical substance/The level of expressed mRNA in the absence of chemical substance", "setting": "yeast gene YHR094C", "value": 1.2}, {"measurement": "The level of expressed mRNA in the presence of chemical substance/The level of expressed mRNA in the absence of chemical substance", "setting": "yeast gene YHR175W", "value": 0.9}, {"measurement": "The level of expressed mRNA in the presence of chemical substance/The level of expressed mRNA in the absence of chemical substance", "setting": "yeast gene YIL006W", "value": 0.6}, {"measurement": "The level of expressed mRNA in the presence of chemical substance/The level of expressed mRNA in the absence of chemical substance", "setting": "yeast gene YIL022W", "value": 0.8}, {"measurement": "The level of expressed mRNA in the presence of chemical substance/The level of expressed mRNA in the absence of chemical substance", "setting": "yeast gene YIL056W", "value": 0.7}, {"measurement": "The level of expressed mRNA in the presence of chemical substance/The level of expressed mRNA in the absence of chemical substance", "setting": "yeast gene YIL088C", "value": 0.8}, {"measurement": "The level of expressed mRNA in the presence of chemical substance/The level of expressed mRNA in the absence of chemical substance", "setting": "yeast gene YJL034W", "value": 1.5}, {"measurement": "The level of expressed mRNA in the presence of chemical substance/The level of expressed mRNA in the absence of chemical substance", "setting": "yeast gene YJL212C", "value": 0.7}, {"measurement": "The level of expressed mRNA in the presence of chemical substance/The level of expressed mRNA in the absence of chemical substance", "setting": "yeast gene YJL219W", "value": 1.5}, {"measurement": "The level of expressed mRNA in the presence of chemical substance/The level of expressed mRNA in the absence of chemical substance", "setting": "yeast gene YJR077C", "value": 0.8}, {"measurement": "The level of expressed mRNA in the presence of chemical substance/The level of expressed mRNA in the absence of chemical substance", "setting": "yeast gene YJR106W", "value": 0.9}, {"measurement": "The level of expressed mRNA in the presence of chemical substance/The level of expressed mRNA in the absence of chemical substance", "setting": "yeast gene YJR121W", "value": 0.7}, {"measurement": "The level of expressed mRNA in the presence of chemical substance/The level of expressed mRNA in the absence of chemical substance", "setting": "yeast gene YKL016C", "value": 1.6}, {"measurement": "The level of expressed mRNA in the presence of chemical substance/The level of expressed mRNA in the absence of chemical substance", "setting": "yeast gene YKL146W", "value": 0.8}, {"measurement": "The level of expressed mRNA in the presence of chemical substance/The level of expressed mRNA in the absence of chemical substance", "setting": "yeast gene YKR039W", "value": 1.0}, {"measurement": "The level of expressed mRNA in the presence of chemical substance/The level of expressed mRNA in the absence of chemical substance", "setting": "yeast gene YKR067W", "value": 0.8}, {"measurement": "The level of expressed mRNA in the presence of chemical substance/The level of expressed mRNA in the absence of chemical substance", "setting": "yeast gene YLL028W", "value": 0.7}, {"measurement": "The level of expressed mRNA in the presence of chemical substance/The level of expressed mRNA in the absence of chemical substance", "setting": "yeast gene YLR081W", "value": 0.9}, {"measurement": "The level of expressed mRNA in the presence of chemical substance/The level of expressed mRNA in the absence of chemical substance", "setting": "yeast gene YLR295C", "value": 1.2}, {"measurement": "The level of expressed mRNA in the presence of chemical substance/The level of expressed mRNA in the absence of chemical substance", "setting": "yeast gene YLR348C", "value": 0.9}, {"measurement": "The level of expressed mRNA in the presence of chemical substance/The level of expressed mRNA in the absence of chemical substance", "setting": "yeast gene YLR378C", "value": 0.5}, {"measurement": "The level of expressed mRNA in the presence of chemical substance/The level of expressed mRNA in the absence of chemical substance", "setting": "yeast gene YMR011W", "value": 1.1}, {"measurement": "The level of expressed mRNA in the presence of chemical substance/The level of expressed mRNA in the absence of chemical substance", "setting": "yeast gene YMR162C", "value": 0.8}, {"measurement": "The level of expressed mRNA in the presence of chemical substance/The level of expressed mRNA in the absence of chemical substance", "setting": "yeast gene YMR203W", "value": 0.7}, {"measurement": "The level of expressed mRNA in the presence of chemical substance/The level of expressed mRNA in the absence of chemical substance", "setting": "yeast gene YNL055C", "value": 0.7}, {"measurement": "The level of expressed mRNA in the presence of chemical substance/The level of expressed mRNA in the absence of chemical substance", "setting": "yeast gene YNL259C", "value": 1.5}, {"measurement": "The level of expressed mRNA in the presence of chemical substance/The level of expressed mRNA in the absence of chemical substance", "setting": "yeast gene YNR072W", "value": 0.9}, {"measurement": "The level of expressed mRNA in the presence of chemical substance/The level of expressed mRNA in the absence of chemical substance", "setting": "yeast gene YOL119C", "value": 2.0}, {"measurement": "The level of expressed mRNA in the presence of chemical substance/The level of expressed mRNA in the absence of chemical substance", "setting": "yeast gene YOL156W", "value": 1.0}, {"measurement": "The level of expressed mRNA in the presence of chemical substance/The level of expressed mRNA in the absence of chemical substance", "setting": "yeast gene YOL163W", "value": 1.1}, {"measurement": "The level of expressed mRNA in the presence of chemical substance/The level of expressed mRNA in the absence of chemical substance", "setting": "yeast gene YOR035C", "value": 1.0}, {"measurement": "The level of expressed mRNA in the presence of chemical substance/The level of expressed mRNA in the absence of chemical substance", "setting": "yeast gene YOR130C", "value": 0.8}, {"measurement": "The level of expressed mRNA in the presence of chemical substance/The level of expressed mRNA in the absence of chemical substance", "setting": "yeast gene YOR153W", "value": 0.5}, {"measurement": "The level of expressed mRNA in the presence of chemical substance/The level of expressed mRNA in the absence of chemical substance", "setting": "yeast gene YOR273C", "value": 0.6}, {"measurement": "The level of expressed mRNA in the presence of chemical substance/The level of expressed mRNA in the absence of chemical substance", "setting": "yeast gene YOR316C", "value": 0.8}, {"measurement": "The level of expressed mRNA in the presence of chemical substance/The level of expressed mRNA in the absence of chemical substance", "setting": "yeast gene YOR332W", "value": 1.5}, {"measurement": "The level of expressed mRNA in the presence of chemical substance/The level of expressed mRNA in the absence of chemical substance", "setting": "yeast gene YOR348C", "value": 0.8}, {"measurement": "The level of expressed mRNA in the presence of chemical substance/The level of expressed mRNA in the absence of chemical substance", "setting": "yeast gene YPL036W", "value": 0.5}, {"measurement": "The level of expressed mRNA in the presence of chemical substance/The level of expressed mRNA in the absence of chemical substance", "setting": "yeast gene YPL134C", "value": 1.3}, {"measurement": "The level of expressed mRNA in the presence of chemical substance/The level of expressed mRNA in the absence of chemical substance", "setting": "yeast gene YPL271W", "value": 0.9}, {"measurement": "The level of expressed mRNA in the presence of chemical substance/The level of expressed mRNA in the absence of chemical substance", "setting": "yeast gene YPR192W", "value": 0.6}, {"measurement": "The level of expressed mRNA in the presence of chemical substance/The level of expressed mRNA in the absence of chemical substance", "setting": "yeast gene YPR194C", "value": 1.0}]}]}
